Measured values as given in ChEMBL document CHEMBL1201862, “PubChem BioAssay data set” (2004).
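1) Cells in 96-well plates. 2) Compound, 48 h, 5 concentrations. 3) Linear interpolation between surrounding doses. 4) Unreached endpoint = highest concentration. GI50 = concentration required for 50% inhibition of growth.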 Activity calls are given as the source filed them. Rule as the data show it: active = GI50 up to about 1.1 µM and inactive = higher.

Experiments:
Assay in all cases: DTP human tumour cell line panel, 48 h
[1] = test system: IGROV-1
[2] = test system: A498
[3] = test system: UO-31
[4] = test system: SR
[5] = test system: OVCAR-8
[6] = test system: SK-MEL-28
[7] = test system: ACHN
[8] = test system: HCC 2998
[9] = test system: SF-295
[10] = test system: HL-60
[11] = test system: HOP-92
[12] = test system: OVCAR-3
[13] = test system: KM12
[14] = test system: CAKI-1
[15] = test system: SK-OV-3
[16] = test system: HOP-62
[17] = test system: LOX IMVI

Measured: GI50

N#CC(C(=O)CCCC(=O)Nc1ccccc1[N+](=O)[O-])c1c(Cl)cccc1Cl (stereo not drawn)
inactive: [1] > 100 µM | [2] > 100 µM | [3] > 100 µM | [4] > 100 µM | [5] > 100 µM | [6] > 100 µM | [7] > 100 µM | [8] > 100 µM | [9] > 100 µM | [10] 99.1 µM | [11] 61.9 µM | [12] > 100 µM | [13] > 100 µM | [14] > 100 µM | [15] > 100 µM | [16] > 100 µM

CC(CC(=O)Nc1ccc(NC(=O)CC(C)/N=N\C(N)=S)cc1)/N=N\C(N)=S (stereo not drawn)
inactive: [17] 57.5 µM | [1] > 100 µM | [2] > 100 µM | [3] > 100 µM | [4] 48.9 µM | [5] > 100 µM | [6] > 100 µM | [7] > 100 µM | [8] > 100 µM | [9] > 100 µM | [10] > 100 µM | [11] > 100 µM | [12] > 100 µM | [13] > 100 µM | [14] > 100 µM | [16] > 100 µM

Cc1c(OCCCOc2ccc3c(=O)cc(-c4ccccc4)oc3c2C)ccc2c(=O)cc(-c3ccccc3)oc12
inactive: [17] > 100 µM | [1] > 100 µM | [2] > 100 µM | [3] > 100 µM | [4] 44.2 µM | [5] > 100 µM | [6] > 100 µM | [9] > 100 µM | [10] 41.4 µM | [11] > 100 µM | [12] > 100 µM | [13] > 100 µM | [14] > 100 µM | [15] > 100 µM | [16] 61.1 µM

Cc1ccccc1C(=O)c1cc(O)ccc1O
inactive: [1] 99.5 µM | [2] > 100 µM | [3] > 100 µM | [4] 78 µM | [5] > 100 µM | [7] > 100 µM | [8] 53.8 µM | [9] > 100 µM | [10] 31.8 µM | [11] > 100 µM | [12] > 100 µM | [13] 43 µM | [14] > 100 µM | [15] > 100 µM | [16] > 100 µM

CN(C)C(=S)/N=c1\ss/c(=N\C(=S)N(C)C)n1-c1cccc(Cl)c1
inactive: [17] > 100 µM | [1] > 100 µM | [2] > 100 µM | [3] > 100 µM | [4] > 100 µM | [5] > 100 µM | [6] > 100 µM | [7] > 100 µM | [8] > 100 µM | [9] > 100 µM | [10] > 100 µM | [12] > 100 µM | [13] > 100 µM | [14] > 100 µM | [15] > 10 µM | [16] > 100 µM

Cc1ccc(S(=O)(=O)O/N=C2\CCC\C2=C/c2ccccc2)cc1
inactive: [17] 25.9 µM | [1] 26.2 µM | [3] 19.9 µM | [4] 16.4 µM | [5] 29 µM | [6] 11.1 µM | [7] 11.1 µM | [8] 17.7 µM | [9] 22.8 µM | [10] 6.82 µM | [11] 15.7 µM | [12] 18.5 µM | [13] 17.6 µM | [14] 17.6 µM | [15] 63.4 µM | [16] 36.6 µM

COC1CC(O[C@H]2CC[C@@]3(C)C(=CCC4(O)C3CCC35C(=O)OC6(C)O[C@@]43CCC65)C2)OC(C)C1O (stereo partly drawn)
inactive: [1] > 100 µM | [2] > 100 µM | [3] > 100 µM | [4] > 100 µM | [5] > 100 µM | [6] > 100 µM | [7] > 100 µM | [8] > 100 µM | [9] > 100 µM | [10] > 100 µM | [13] > 100 µM | [14] > 100 µM | [15] > 100 µM | [16] > 100 µM
